Data taken from patent publication US20220098197A1, “SALTS OF HETEROCYCLIC COMPOUND AND USE THEREOF” (priority 2019, published 2022).

Tests used:
[1] = tested on: CS-induced ALI mice; assay: CS-induced lung injury model: lung weight ratio (coefficient); type: in vivo, Balb/c mice; conditions: CT-NA 10 and 30 mg/kg intragastric; CS exposure; p<0.05
Protocol: Model preparation: The mice were randomly divided into 5 groups (12 mice in each group), which were the control group (the mice were exposed to fresh air), the saline group (the mice were exposed to cigarette smoke), dexamethasone (Dex) group (1 mg/kg) (the mice were exposed to cigarette smoke), CT-NA 10 mg/kg group and CT-NA 30 mg/kg group (the mice were exposed to cigarette smoke). According to the grouping, the mice were intragastrically administered saline, Dex and CT-NA, respectively. Thereafter, the mice were exposed to fresh air or cigarette smoke generated from 3R4F research-grade cigarettes (containing about 600 mg TPM/m^3 and 29.9 mg nicotine/m^3) in a cuboid plastic box (65×50x×45 cm). Ten cigarettes were burned every day for seven days. After one cigarette was burned, the next cigarette was ignited. […] 24 hrs after the last exposure to the cigarette smoke, the partial pressure of oxygen (PO2) of all mice was measured by the Moor VMS-OXY™ measuring instrument, which was used to measure the oxygenated/deoxygenated hemoglobin concentration and oxygen saturation (percentage) in the microcirculation at the wavelength range of 500 to 650 nm. […] As an index of pulmonary edema, the lung weight ratio was measured by dividing the individual lung weight of each mouse after aspirating the blood tissue from the lung surface, by the total body weight.

[2] = tested on: RAW 264.7 macrophages; assay: In vitro cytokines assay via ELISA, CSE- and PGD2-stimulated macrophages; type: cell-based, mouse; conditions: CT-NA 10 and 100 μM, p<0.01
Protocol: The cigarette smoke generated from 3R4F research grade cigarettes was passed through 50 ml PBS by a vacuum pump. Five cigarettes were used to make smoke that passed 50 ml PBS, and each cigarette was lit for 5 minutes. The control solution was prepared in the absence of cigarettes by using a similar method. After extraction, CSE was stored at −80° C.
RAW 264.7 macrophages were added to two 12-well plates. Thereafter, the medium of the 12-well plate was replaced with serum-free RPMI-1640 medium, and the macrophages were incubated for 10-12 hrs and then exposed to CT-NA (10 and 100 μM) for 1 hour. One hour later, one 12-well plate was treated with CSE (4%) and the other with PGD2 (10 μM) for 24 hrs. After the treatment, the supernatant of the treated cells was collected to measure the protein levels of TNF-α, IL-1β, IL-6, KC and IL-10 extracellularly secreted using ELISA kits according to the method of the instructions. Subsequently, RNA samples from each treated plate were extracted and reverse-transcripted into cDNA with HiScript5xQRTSuperMix, and then subjected to RT-PCR. RT-PCR was performed with the BioRad CFX96 Touch™ Real-Time PCR Detection System (BioRad, USA) using AceQ® qPCR SYBR Green Master Mix. And the threshold cycle numbers were obtained using BioRad CFX Manager Software. The primers used for RT-PCR reaction were shown in Table 1. β-actin was used as an internal control. The RT-PCR reactions were triplicated and the relative expression of target mRNA was normalized by the respective β-actin.

SMILES: CN([C@@H]1CCc2c(CC(=O)[O-])c3cccnc3n2C1)S(=O)(=O)c1ccc(F)cc1.[Na+] [Sodium salt hydrate]
- lung weight coefficient [1]: partially reduced
- protein levels of IL-1β, IL-6, TNF-α and KC, CSE-stimulated ([2]; 1 h pretreatment, CSE (4%) 24 hrs): inhibited
- protein levels of IL-1β, IL-6, TNF-α and KC, PGD2-stimulated ([2]; 1 h pretreatment, PGD2 (10 μM) 24 hrs): inhibited
- CSE-induced inhibition of IL-10, protein ([2]; CSE (4%), dose-dependent): reversed
- PGD2-induced inhibition of IL-10, protein ([2]; PGD2 (10 μM), dose-dependent): reversed
